Laboratory results reported in publication PMC6422671 (British Journal of Clinical Pharmacology, 2019).

Assay: Clinical laboratory findings: haematology; data mean (standard deviation)
Assay type: in vivo, healthy men
Description: Data are mean (standard deviation).

C[C@@H](N)c1cc(Cl)ccc1Cn1c(=S)[nH]c(=O)c2[nH]ccc21 [AZD4831]
Basophils (45 mg fed, 24 h): 0.03 (0.01) 10^9 L^–1 | Eosinophils (45 mg fed, 24 h): 0.19 (0.10) 10^9 L^–1 | Erythrocyte MCH (45 mg fed, 24 h): 30.2 (2.0) pg | Erythrocyte MCH concentration (45 mg fed, 24 h): 343 (14) g L^–1 | Erythrocyte MCV (45 mg fed, 24 h): 88.0 (5.6) fL | Erythrocytes (45 mg fed, 24 h): 4.74 (0.15) 10^12 L^–1 | Haematocrit (45 mg fed, 24 h): 0.42 (0.03) ratio | Haemoglobin (45 mg fed, 24 h): 143 (9) g L^–1 | Leukocytes (45 mg fed, 24 h): 5.51 (0.85) 10^9 L^–1 | Lymphocytes (45 mg fed, 24 h): 1.76 (0.61) 10^9 L^–1 | Monocytes (45 mg fed, 24 h): 0.34 (0.16) 10^9 L^–1 | Neutrophils (45 mg fed, 24 h): 3.11 (0.79) 10^9 L^–1 | Platelets (45 mg fed, 24 h): 227 (50) 10^9 L^–1 | Reticulocytes (45 mg fed, 24 h): 77.4 (5.4) 10^9 L^–1 | Basophils (45 mg fed, 48 h): 0.03 (0.02) 10^9 L^–1 | Eosinophils (45 mg fed, 48 h): 0.20 (0.15) 10^9 L^–1 | Erythrocyte MCH (45 mg fed, 48 h): 30.2 (1.7) pg | Erythrocyte MCH concentration (45 mg fed, 48 h): 343 (8) g L^–1 | Erythrocyte MCV (45 mg fed, 48 h): 88.2 (5.8) fL | Erythrocytes (45 mg fed, 48 h): 4.89 (0.11) 10^12 L^–1 | Haematocrit (45 mg fed, 48 h): 0.43 (0.03) ratio | Haemoglobin (45 mg fed, 48 h): 148 (9) g L^–1 | Leukocytes (45 mg fed, 48 h): 5.93 (1.07) 10^9 L^–1 | Lymphocytes (45 mg fed, 48 h): 1.85 (0.77) 10^9 L^–1 | Monocytes (45 mg fed, 48 h): 0.40 (0.16) 10^9 L^–1 | Neutrophils (45 mg fed, 48 h): 3.35 (1.20) 10^9 L^–1 | Platelets (45 mg fed, 48 h): 233 (51) 10^9 L^–1 | Reticulocytes (45 mg fed, 48 h): 84.5 (7.9) 10^9 L^–1 | Basophils (45 mg fed, follow up): 0.04 (0.01) 10^9 L^–1 | Eosinophils (45 mg fed, follow up): 0.18 (0.12) 10^9 L^–1 | Erythrocyte MCH (45 mg fed, follow up): 30.7 (1.0) pg | Erythrocyte MCH concentration (45 mg fed, follow up): 347 (11) g L^–1 | Erythrocyte MCV (45 mg fed, follow up): 88.3 (5.1) fL | Erythrocytes (45 mg fed, follow up): 4.72 (0.16) 10^12 L^–1 | Haematocrit (45 mg fed, follow up): 0.42 (0.04) ratio | Haemoglobin (45 mg fed, follow up): 145 (9) g L^–1 | Leukocytes (45 mg fed, follow up): 6.37 (1.60) 10^9 L^–1 | Lymphocytes (45 mg fed, follow up): 1.79 (0.37) 10^9 L^–1 | Monocytes (45 mg fed, follow up): 0.39 (0.12) 10^9 L^–1 | Neutrophils (45 mg fed, follow up): 3.85 (1.22) 10^9 L^–1 | Platelets (45 mg fed, follow up): 250 (62) 10^9 L^–1 | Reticulocytes (45 mg fed, follow up): 82.9 (10.8) 10^9 L^–1 | Basophils (135 mg fasted, 24 h): 0.02 (0.01) 10^9 L^–1 | Eosinophils (135 mg fasted, 24 h): 0.11 (0.07) 10^9 L^–1 | Erythrocyte MCH (135 mg fasted, 24 h): 31.0 (0.4) pg | Erythrocyte MCH concentration (135 mg fasted, 24 h): 354 (5) g L^–1 | Erythrocyte MCV (135 mg fasted, 24 h): 87.5 (1.9) fL | Erythrocytes (135 mg fasted, 24 h): 4.69 (0.26) 10^12 L^–1 | Haematocrit (135 mg fasted, 24 h): 0.41 (0.02) ratio | Haemoglobin (135 mg fasted, 24 h): 145 (8) g L^–1 | Leukocytes (135 mg fasted, 24 h): 5.11 (1.13) 10^9 L^–1 | Lymphocytes (135 mg fasted, 24 h): 1.52 (0.40) 10^9 L^–1 | Monocytes (135 mg fasted, 24 h): 0.35 (0.12) 10^9 L^–1 | Neutrophils (135 mg fasted, 24 h): 3.00 (0.79) 10^9 L^–1 | Platelets (135 mg fasted, 24 h): 200 (25) 10^9 L^–1 | Reticulocytes (135 mg fasted, 24 h): 72.4 (19.9) 10^9 L^–1 | Basophils (135 mg fasted, 48 h): 0.03 (0.01) 10^9 L^–1 | Eosinophils (135 mg fasted, 48 h): 0.12 (0.07) 10^9 L^–1 | Erythrocyte MCH (135 mg fasted, 48 h): 30.9 (0.4) pg | Erythrocyte MCH concentration (135 mg fasted, 48 h): 353 (7) g L^–1 | Erythrocyte MCV (135 mg fasted, 48 h): 87.4 (1.6) fL | Erythrocytes (135 mg fasted, 48 h): 4.68 (0.30) 10^12 L^–1 | Haematocrit (135 mg fasted, 48 h): 0.41 (0.03) ratio | Haemoglobin (135 mg fasted, 48 h): 144 (9) g L^–1 | Leukocytes (135 mg fasted, 48 h): 5.28 (1.23) 10^9 L^–1 | Lymphocytes (135 mg fasted, 48 h): 1.66 (0.47) 10^9 L^–1 | Monocytes (135 mg fasted, 48 h): 0.37 (0.11) 10^9 L^–1 | Neutrophils (135 mg fasted, 48 h): 3.00 (0.83) 10^9 L^–1 | Platelets (135 mg fasted, 48 h): 202 (29) 10^9 L^–1 | Reticulocytes (135 mg fasted, 48 h): 70.1 (15.1) 10^9 L^–1 | Basophils (135 mg fasted, follow up): 0.03 (0.01) 10^9 L^–1 | Eosinophils (135 mg fasted, follow up): 0.14 (0.09) 10^9 L^–1 | Erythrocyte MCH (135 mg fasted, follow up): 30.8 (0.5) pg | Erythrocyte MCH concentration (135 mg fasted, follow up): 350 (11) g L^–1 | Erythrocyte MCV (135 mg fasted, follow up): 88.2 (1.7) fL | Erythrocytes (135 mg fasted, follow up): 4.62 (0.25) 10^12 L^–1 | Haematocrit (135 mg fasted, follow up): 0.41 (0.02) ratio | Haemoglobin (135 mg fasted, follow up): 143 (9) g L^–1 | Leukocytes (135 mg fasted, follow up): 6.80 (3.32) 10^9 L^–1 | Lymphocytes (135 mg fasted, follow up): 1.51 (0.26) 10^9 L^–1 | Monocytes (135 mg fasted, follow up): 0.48 (0.32) 10^9 L^–1 | Neutrophils (135 mg fasted, follow up): 4.46 (2.99) 10^9 L^–1 | Platelets (135 mg fasted, follow up): 218 (24) 10^9 L^–1 | Reticulocytes (135 mg fasted, follow up): 82.8 (19.3) 10^9 L^–1 | Basophils (405 mg fasted, 24 h): 0.04 (0.01) 10^9 L^–1 | Eosinophils (405 mg fasted, 24 h): 0.18 (0.15) 10^9 L^–1 | Erythrocyte MCH (405 mg fasted, 24 h): 30.8 (1.5) pg | Erythrocyte MCH concentration (405 mg fasted, 24 h): 345 (8) g L^–1 | Erythrocyte MCV (405 mg fasted, 24 h): 89.4 (3.8) fL | Erythrocytes (405 mg fasted, 24 h): 4.81 (0.31) 10^12 L^–1 | Haematocrit (405 mg fasted, 24 h): 0.43 (0.01) ratio | Haemoglobin (405 mg fasted, 24 h): 148 (6) g L^–1 | Leukocytes (405 mg fasted, 24 h): 5.53 (1.12) 10^9 L^–1 | Lymphocytes (405 mg fasted, 24 h): 1.40 (0.19) 10^9 L^–1 | Monocytes (405 mg fasted, 24 h): 0.34 (0.09) 10^9 L^–1 | Neutrophils (405 mg fasted, 24 h): 3.47 (0.79) 10^9 L^–1 | Platelets (405 mg fasted, 24 h): 190 (23) 10^9 L^–1 | Reticulocytes (405 mg fasted, 24 h): 68.5 (16.4) 10^9 L^–1 | Basophils (405 mg fasted, 48 h): 0.03 (0.01) 10^9 L^–1 | Eosinophils (405 mg fasted, 48 h): 0.24 (0.26) 10^9 L^–1 | Erythrocyte MCH (405 mg fasted, 48 h): 31.0 (1.6) pg | Erythrocyte MCH concentration (405 mg fasted, 48 h): 347 (7) g L^–1 | Erythrocyte MCV (405 mg fasted, 48 h): 89.4 (3.7) fL | Erythrocytes (405 mg fasted, 48 h): 4.67 (0.22) 10^12 L^–1 | Haematocrit (405 mg fasted, 48 h): 0.42 (0.01) ratio | Haemoglobin (405 mg fasted, 48 h): 145 (5) g L^–1 | Leukocytes (405 mg fasted, 48 h): 5.53 (1.14) 10^9 L^–1 | Lymphocytes (405 mg fasted, 48 h): 1.51 (0.30) 10^9 L^–1 | Monocytes (405 mg fasted, 48 h): 0.40 (0.14) 10^9 L^–1 | Neutrophils (405 mg fasted, 48 h): 3.22 (0.62) 10^9 L^–1 | Platelets (405 mg fasted, 48 h): 187 (20) 10^9 L^–1 | Reticulocytes (405 mg fasted, 48 h): 66.3 (20.0) 10^9 L^–1 | Basophils (405 mg fasted, follow up): 0.04 (0.01) 10^9 L^–1 | Eosinophils (405 mg fasted, follow up): 0.27 (0.27) 10^9 L^–1 | Erythrocyte MCH (405 mg fasted, follow up): 31.0 (1.1) pg | Erythrocyte MCH concentration (405 mg fasted, follow up): 345 (5) g L^–1 | Erythrocyte MCV (405 mg fasted, follow up): 89.8 (3.6) fL | Erythrocytes (405 mg fasted, follow up): 4.83 (0.35) 10^12 L^–1 | Haematocrit (405 mg fasted, follow up): 0.43 (0.02) ratio | Haemoglobin (405 mg fasted, follow up): 149 (8) g L^–1 | Leukocytes (405 mg fasted, follow up): 5.84 (1.41) 10^9 L^–1 | Lymphocytes (405 mg fasted, follow up): 1.43 (0.19) 10^9 L^–1 | Monocytes (405 mg fasted, follow up): 0.40 (0.08) 10^9 L^–1 | Neutrophils (405 mg fasted, follow up): 3.54 (1.02) 10^9 L^–1 | Platelets (405 mg fasted, follow up): 205 (21) 10^9 L^–1 | Reticulocytes (405 mg fasted, follow up): 78.6 (19.4) 10^9 L^–1
